Laboratory results from patent publication US8415310B2, “Isoxazoline derivatives as antiparasitic agents” (AH USA 42 LLC, priority 2010, dated 2013).

Key:
[1] = system: Lepeophtheirus salmonis; test: Copepod (Lepeophtheirus salmonis) BioAssay; format: in vivo; conditions: pre-adult/adult salmon lice exposed for 24 hours in sea water
Method: Copepod (Lepeophtheirus salmonis) BioAssay
Two Formula (1) compounds were dissolved in sea water. Negative control was sea water and positive control was emamectin benzoate. Ten pre-adult/adult salmon lice were exposed for 24 hours. Lice were monitored for motility and endpoint data was recorded as an Effective Concentration 100% (EC^100) based on immotility.

[2] = system: Ctenocephalides felis; test: Flea (Ctenocephalides felis) Membrane Feed Assay-Adult; format: in vivo
Method: Flea (Ctenocephalides felis) Membrane Feed Assay-Adult
Comparative Data: Flea Feed Assay
Comparator compounds T1 and T2 were tested in the flea feed assay, as described above, and are compared to Examples 39 and 43, respectively. The compounds T1 (WO2008/122375) and T2 (US2009/0156643) represent the closet exemplified art. The data represents the 24 hour time period. Endpoint data were recorded as an lethal dose 90% (LD^90) in μg/mL. […] Comparator compounds T1 and T2 both had LD^90 values of >30 […].

[3] = comparative data, flea feed assay, 24 hour time period

## O=C(CC(F)(F)F)N1CC(F)(c2ccc(C3=NOC(c4cc(Cl)c(F)c(Cl)c4)(C(F)(F)F)C3)cc2)C1 (racemic) [Example 19, 1-(3-(4-(5-(3,5-dichloro-4-fluorophenyl)-5-(trifluoromethyl)-4,5-dihydroisoxazol-3-yl)phenyl)-3-fluoroazetidin-1-yl)-3,3,3-trifluoropropan-1-one]
[1]
  Effective Concentration 100% (EC^100) based on immotility: 50 ppb

## CC(C)C(=O)N1CC(F)(c2ccc(C3=NOC(c4cc(Cl)c(F)c(Cl)c4)(C(F)(F)F)C3)cc2)C1 (single isomer, unassigned) [Example 177, 5-(3,5-dichloro-4-fluorophenyl)-3-[4-(3-fluoro-1-isobutyrylazetidin-3-yl)phenyl]-5-(trifluoromethyl)-4,5-dihydroisoxazole]
[1]
  Effective Concentration 100% (EC^100) based on immotility: 50 ppb

## O=C(NC1CC1)N1CC(F)(c2ccc(C3=NOC(c4cc(Cl)cc(Cl)c4)(C(F)(F)F)C3)cc2)C1 (centres unmarked) [Example 10, N-cyclopropyl-3-(4-(5-(3,5-dichlorophenyl)-5-(trifluoromethyl)-4,5-dihydroisoxazol-3-yl)phenyl)-3-fluoroazetidine-1-carboxamide]
[2]; adult fleas fed on treated citrated bovine blood approximately 2 hours, knockdown and/or death at approximately 2 and 24 hours
  lethal dose 90% (LD^90): ≤ 0.03 µg/mL

## CC(=O)N1CC(F)(c2ccc(C3=NOC(c4cc(Cl)cc(Cl)c4)(C(F)(F)F)C3)cc2)C1 (centres unmarked) [Example 39, 1-(3-(4-(5-(3,5-Dichlorophenyl)-5-(trifluoromethyl)-4,5-dihydroisoxazol-3-yl)phenyl)-3-fluoroazetidin-1-yl)ethanone]
[2]; [3]
  lethal dose 90% (LD^90): ≤ 3 µg/mL

## O=C(CC(F)(F)F)N1CC(F)(c2ccc(C3=NOC(c4cc(Cl)cc(Cl)c4)(C(F)(F)F)C3)cc2)C1 (centres unmarked) [Example 43, 1-(3-(4-(5-(3,5-Dichlorophenyl)-5-(trifluoromethyl)-4,5-dihydroisoxazol-3-yl)phenyl)-3-fluoroazetidin-1-yl)-3,3,3-trifluoropropan-1-one]
[2]; [3]
  lethal dose 90% (LD^90): ≤ 1 µg/mL
